For experiment [1], the system named is methicillin resistant S. aureus Mu50 strain (S. aureus ATCC700699) biofilm. Kind of experiment: Biofilm susceptibility to vancomycin, pre-treatment regimen (biofilm formed in presence of compound, then vancomycin). Format: cell-based. The note with it: for Pretreat (100 μM): percentage Colony Forming Units (CFU's) per biofilm: compound 100 μM during biofilm formation; for Pretreat (100 μM): percentage Colony Forming Units (CFU's) per biofilm / Pretreat. (25 μM): percentage Colony Forming Units (CFU's) per biofilm: then VAN 20 μg/ml, compared to the untreated (negative) control; for EC50: concentration needed to get 50% killing compared to antibiotic alone (VAN 20 μg/ml) and complete killing, read-out: Pretreat. (EC50); for Pretreat. (25 μM): percentage Colony Forming Units (CFU's) per biofilm: compound 25 μM during biofilm formation. The procedure, abridged: (§1)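 Mu50 biofilms from 10^8 CFU/ml inoculum (4 h adhesion, then 20 h, 37 °C). Pre-treatment: compound (0.1-250 μM) present during biofilm formation, then vancomycin 20 μg/ml alone 24 h; combination: mature biofilm given vancomycin 20 μg/ml plus compound 24 h. Survivors counted by plating versus vancomycin alone.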

Experiment [2] shares this test system. Kind of experiment: Biofilm susceptibility to vancomycin, combination treatment regimen (mature biofilm treated with compound plus vancomycin). The note with it: for Combin. (100 μM): percentage Colony Forming Units (CFU's) per biofilm: compound 100 μM together with VAN 20 μg/ml on mature biofilm; for Combin. (100 μM): percentage Colony Forming Units (CFU's) per biofilm / Combin. (25 μM): percentage Colony Forming Units (CFU's) per biofilm: compared to the untreated (negative) control; for EC50: concentration needed to get 50% killing compared to antibiotic alone (VAN 20 μg/ml) and complete killing, read-out: Combin. (EC50); for Combin. (25 μM): percentage Colony Forming Units (CFU's) per biofilm: compound 25 μM together with VAN 20 μg/ml on mature biofilm. Format: cell-based. The procedure, abridged: as §1

Each structure is given as a SMILES string.

Results on 16 molecules are retold here after patent publication US10023602B2, “Hamamelitannin analogues and uses thereof” (Universiteit Gent, priority 2014, dated 2018).

In general, EC50 refers to the concentration that produces a half-maximal response. As for `O=C(NC[C@H]1OC[C@@](O)(CNC(=O)c2ccccc2Cl)[C@@H]1O)c1ccnnc1` [compound 251, N-(((2R,3R,4S)-4-((2-chlorobenzamido)methyl)-3,4-dihydroxytetrahydrofuran-2-yl)methyl)pyridazine-4-carboxamide], in experiment [1], the “Pretreat (100 μM): percentage Colony Forming Units (CFU's) per biofilm” value turned out to be 3.85 percentage and the EC50 is 3.38 µM. In experiment [2], the “Combin. (100 μM): percentage Colony Forming Units (CFU's) per biofilm” value worked out at 37.03 percentage and the concentration giving a half-maximal response (EC50) is 98.9 µM.
Take `Cc1ccc(C(=O)NC[C@]2(O)CO[C@H](CNC(=O)c3ccccc3Cl)[C@H]2O)cc1` [compound 232, 2-chloro-N-(((2R,3R,4S)-3,4-dihydroxy-4-((4-methylbenzamido)methyl)tetrahydrofuran-2-yl)methyl)benzamide]: in experiment [1], the “Pretreat. (25 μM): percentage Colony Forming Units (CFU's) per biofilm” value is 52.41 percentage and the EC50 was determined as 79.7 µM. Besides, in experiment [2], the “Combin. (25 μM): percentage Colony Forming Units (CFU's) per biofilm” value is listed as 42.16 percentage and the concentration giving a half-maximal response (EC50) was found to be 41.9 µM.
On to `O=C(NC[C@]1(O)CO[C@H](CNC(=O)c2ccccc2Cl)[C@H]1O)c1ccccc1F` [compound 245, 2-chloro-N-(((2R,3R,4S)-4-((2-fluorobenzamido)methyl)-3,4-dihydroxytetrahydrofuran-2-yl)methyl)benzamide], for which, in experiment [1], the “Pretreat. (25 μM): percentage Colony Forming Units (CFU's) per biofilm” value is 61.75 percentage and the concentration for a half-maximal effect (EC50) was found to be 48.6 µM. Also, in experiment [2], the “Combin. (25 μM): percentage Colony Forming Units (CFU's) per biofilm” value is 44.14 percentage and the EC50 was found to be 62.2 µM.
Take `O=C(NC[C@]1(O)CO[C@H](CNC(=O)c2c(Cl)ccnc2Cl)[C@H]1O)c1ccccc1` [compound 196, N-(((2R,3R,4S)-4-(benzamidomethyl)-3,4-dihydroxytetrahydrofuran-2-yl)methyl)-2,4-dichloronicotinamide]: in experiment [1], the “Pretreat (100 μM): percentage Colony Forming Units (CFU's) per biofilm” value is given as 21.86 percentage and the EC50 came out at 13 µM. For the same molecule, in experiment [2], the “Combin. (100 μM): percentage Colony Forming Units (CFU's) per biofilm” value worked out at 8.072 percentage and the EC50 worked out at 7.88 µM.
Consider `COc1ccc(C(=O)NC[C@H]2OC[C@@](O)(CNC(=O)c3ccccc3)[C@@H]2O)cc1OC` [compound 183, N-(((2R,3R,4S)-4-(benzamidomethyl)-3,4-dihydroxytetrahydrofuran-2-yl)methyl)-3,4-dimethoxybenzamide], for which the “Pretreat (100 μM): percentage Colony Forming Units (CFU's) per biofilm” value in experiment [1] amounted to 60.04 percentage. Moreover, the “Combin. (100 μM): percentage Colony Forming Units (CFU's) per biofilm” value in experiment [2] is 61.60 percentage.
With `O=C(NC[C@]1(O)CO[C@H](CNC(=O)c2c(Cl)cncc2Cl)[C@H]1O)c1ccccc1` [compound 195, N-(((2R,3R,4S)-4-(benzamidomethyl)-3,4-dihydroxytetrahydrofuran-2-yl)methyl)-3,5-dichloroisonicotinamide], in experiment [1], the “Pretreat (100 μM): percentage Colony Forming Units (CFU's) per biofilm” value came out at 18.31 percentage and the EC50 was 7.2 µM. Further, in experiment [2], the “Combin. (100 μM): percentage Colony Forming Units (CFU's) per biofilm” value stood at 18.55 percentage and the 50% effective concentration (EC50) is 9.26 µM.
On to `O=C(NC[C@H]1OC[C@@](O)(CNC(=O)c2ccccc2)[C@@H]1O)c1cccc(-c2ccccc2)c1` [compound 168, N-(((2R,3R,4S)-4-(benzamidomethyl)-3,4-dihydroxytetrahydrofuran-2-yl)methyl)-[1,1′-biphenyl]-3-carboxamide], for which the “Pretreat (100 μM): percentage Colony Forming Units (CFU's) per biofilm” value in experiment [1] was 9.830 percentage. Further, in experiment [2], the “Combin. (100 μM): percentage Colony Forming Units (CFU's) per biofilm” value is given as 32.61 percentage.
In the case of `O=C(NC[C@H]1OC[C@@](O)(CNC(=O)c2ccccc2)[C@@H]1O)c1cccnc1` [compound 167, N-(((2R,3R,4S)-4-(benzamidomethyl)-3,4-dihydroxytetrahydrofuran-2-yl)methyl)nicotinamide], in experiment [1], the “Pretreat (100 μM): percentage Colony Forming Units (CFU's) per biofilm” value is 9.813 percentage. For the same molecule, the “Combin. (100 μM): percentage Colony Forming Units (CFU's) per biofilm” value in experiment [2] amounted to 15.22 percentage.
The corresponding values for `O=C(CCc1ccccc1)NC[C@]1(O)CO[C@H](CNC(=O)c2ccccc2Cl)[C@H]1O` [compound 260, 2-chloro-N-(((2R,3R,4S)-3,4-dihydroxy-4-((3-phenylpropanamido)methyl)tetrahydrofuran-2-yl)methyl)benzamide] are 57.01 percentage and 71.12 percentage.
On to `O=C(NC[C@@H]1OC[C@@](O)(CNC(=O)c2ccccc2)[C@@H]1O)c1ccccc1` [compound 270, N,N′-(((2S,3R,4S)-3,4-dihydroxytetrahydrofuran-2,4-diyl)bis(methylene))dibenzamide], for which, in experiment [1], the “Pretreat (100 μM): percentage Colony Forming Units (CFU's) per biofilm” value is given as 51.80 percentage and the EC50 was 224 µM. Moreover, in experiment [2], the “Combin. (100 μM): percentage Colony Forming Units (CFU's) per biofilm” value stood at 55.70 percentage and the EC50 was over 250 µM.
The corresponding values for `O=C(NC[C@]1(O)CO[C@H](CNS(=O)(=O)c2ccc(Cl)cc2)[C@H]1O)c1ccccc1` [compound 217, N-(((3S,4R,5R)-5-(((4-chlorophenyl)sulfonamido)methyl)-3,4-dihydroxytetrahydrofuran-3-yl)methyl)benzamide] are 14.04 percentage, 23.5 µM, 14.85 percentage and 27.8 µM.
In the case of `O=C(NC[C@]1(O)CO[C@H](CNC(=O)c2ccncn2)[C@H]1O)c1ccccc1` [compound 204, N-(((2R,3R,4S)-4-(benzamidomethyl)-3,4-dihydroxytetrahydrofuran-2-yl)methyl)pyrimidine-4-carboxamide], in experiment [1], the “Pretreat (100 μM): percentage Colony Forming Units (CFU's) per biofilm” value was determined as 13.04 percentage. Further, in experiment [2], the “Combin. (100 μM): percentage Colony Forming Units (CFU's) per biofilm” value amounted to 15.85 percentage.
The corresponding values for `O=C(Cc1ccccc1)NC[C@]1(O)CO[C@H](CNC(=O)c2ccccc2Cl)[C@H]1O` [compound 259, 2-chloro-N-(((2R,3R,4S)-3,4-dihydroxy-4-((2-phenylacetamido)methyl)tetrahydrofuran-2-yl)methyl)benzamide] are 55.12 percentage and 71.25 percentage.
The corresponding values for `O=C(NC[C@]1(O)CO[C@H](Cn2cc(-c3ccccc3)nn2)[C@H]1O)c1ccccc1` [compound 221, N-(((3S,4R,5R)-3,4-dihydroxy-5-((4-phenyl-1H-1,2,3-triazol-1-yl)methyl)tetrahydrofuran-3-yl)methyl)benzamide] are 54.01 percentage and 33.81 percentage.
As to `O=C(NC[C@]1(O)CO[C@H](CNC(=O)c2c(Cl)cccc2Cl)[C@H]1O)c1ccccc1` [compound 192, N-(((2R,3R,4S)-4-(benzamidomethyl)-3,4-dihydroxytetrahydrofuran-2-yl)methyl)-2,6-dichlorobenzamide], in experiment [1], the “Pretreat (100 μM): percentage Colony Forming Units (CFU's) per biofilm” value came to 31.41 percentage and the half-maximal effective concentration (EC50) was 59.2 µM. In experiment [2], the “Combin. (100 μM): percentage Colony Forming Units (CFU's) per biofilm” value came out at 43.74 percentage and the EC50 was found to be 136 µM.
The corresponding values for `Cc1ccccc1C(=O)NC[C@H]1OC[C@@](O)(CNC(=O)c2ccccc2)[C@@H]1O` [compound 169, N-(((2R,3R,4S)-4-(benzamidomethyl)-3,4-dihydroxytetrahydrofuran-2-yl)methyl)-2-methylbenzamide] are 11.68 percentage, 13.7 µM, 13.87 percentage and 52.6 µM.
